Results on eleven compounds are retold here after patent EP2545050B1, “COMPOUNDS FOR THE TREATMENT OF HEPATITIS C” (Bristol-Myers Squibb Company, priority 2010, dated 2011).

The EC50 is the midpoint of the concentration-response curve. Low readings indicate higher potency in that assay, high ones lower potency in that assay.

The first data set deals with HCV replicon. The data set can be described thus: HCV replicon assay (FRET or luciferase reporter). Format: cell-based. The settings on record: Hepatitis C virus; HCV replicon cells; Table 1. The source says: FRET Assay Preparation. To perform the HCV FRET screening assay, 96-well cell culture plates were used. The FRET peptide (Anaspec, Inc.) (Taliani et al., Anal. Biochem. 1996, 240, 60-67) contains a fluorescence donor, EDANS, near one end of the peptide and an acceptor, DABCYL, near the other end. The fluorescence of the peptide is quenched by […] resonance energy transfer (RET) between the donor and the acceptor, but as the NS3 protease cleaves the peptide the products are released from RET quenching and the fluorescence of the donor becomes apparent. The assay reagent was made as follows: 5X cell Luciferase cell culture lysis reagent from Promega (#E153A) diluted to 1X with dH2O, NaCl added to 150 mM final, the FRET peptide diluted to 20 µM final from a 2 mM stock.
To prepare plates, HCV replicon cells, with or without a Renilla luciferase reporter gene, were trypsinized and placed into each well of a 96-well plate with titrated test compounds added in columns 3 through 12; columns 1 and 2 contained a control compound (HCV protease inhibitor), and the bottom row contained cells without compound. The plates were then placed in a CO2 incubator at 37 °C.
Assays. Subsequent to addition of the test compounds described above (FRET Assay Preparation), at various times the plate was removed and Alamar blue solution (Trek Diagnostics, #00-100) was added per well as a measure of cellular toxicity. After reading in a Cytoflour 4000 instrument (PE Biosystems), plates were rinsed with PBS and then used for FRET assay by the addition of 30 ul of the FRET peptide assay reagent described above (FRET Assay Preparation) per well. The plate was then placed into the Cytoflour 4000 instrument which had been set to 340 excite/490 emission, automatic mode for 20 cycles and the plate read in a kinetic mode. Typically, the signal to noise using an endpoint analysis after the reads was at least three-fold. Alternatively, after Alamar blue reading, plates were rinsed with PBS, 50 ul of DMEM (high glucose) without phenol red was added and plates were then used for luciferase assay using the Promega Dual-Glo Luciferase Assay System.
Compound analysis was determined by quantification of the relative HCV replicon inhibition and the relative cytotoxicity values. To calculate cytoxicity values, the average Alamar Blue fluorescence signals from the control wells were set as 100% non-toxic. The individual signals in each of the compound test wells were then divided by the average control signal and multiplied by 100% to determine […]. To calculate the HCV replicon inhibition values, an average background value was obtained from the two wells containing the highest amount of HCV protease inhibitor at the end of the assay period. These numbers were similar to those obtained from naive Huh-7 cells.
The background numbers were then subtracted from the average signal obtained from the control wells and this number was used as 100% activity. The individual signals in each of the compound test wells were then divided by the averaged control values after background subtraction and multiplied by 100% to determine percent activity. EC50 values for a protease inhibitor titration were calculated as the concentration which caused a 50% reduction in FRET or luciferase activity. The two numbers generated for the compound plate, percent cytoxicity and percent activity were used to determine compounds of interest for further analysis.
HCV Replicon Luciferase Reporter Assay
The HCV replicon luciferase assay was developed to monitor the inhibitory effects of compounds described in the disclosure on HCV viral replication. Utilization of a replicon luciferase reporter assay was first described by Krieger et al (Krieger N, Lohmann V, and Bartenschlager R, J. Virol. 75(10):4614-4624 (2001)). […]
For orientation: A replicon is a self-replicating genome or part of one, used to study replication in cells.
Compound `CNC(=O)c1c(-c2ccc(F)cc2)nn2ccc(-c3cc(C(=O)NC4(c5ccccc5)CC4)c(OC(F)F)nc3C)c(F)c12` [5-(6-(difluoromethoxy)-2-methyl-5-(1-phenylcyclopropylcarbamoyl)pyridin-3-yl)-4-fluoro-2-(4-fluorophenyl)-N-methylpyrazolo[1,5-a]pyridine-3-carboxamide] gave an EC50 of 2 to 250 nM.
On the same count and under the same terms, the same measure for `CNC(=O)c1c(-c2ccc(F)cc2)nn2ccc(-c3cc(C(=O)NC4(c5cc(F)ccn5)CC4)c(OC)nc3C)c(F)c12` [4-fluoro-2-(4-fluorophenyl)-5-(5-(1-(4-fluoropyridin-2-yl)cyclopropylcarbamoyl)-6-methoxy-2-methylpyridin-3-yl)-N-methylpyrazolo[1,5-a]pyridine-3-carboxamide]: 2 to 250 nM; for `CNC(=O)c1c(-c2ccc(F)cc2)nn2ccc(-c3cc(C(=O)NC4(c5ccccn5)CC4)c(OC)nc3C)c(F)c12` [4-fluoro-2-(4-fluorophenyl)-5-(6-methoxy-2-methyl-5-(1-(pyridin-2-yl)cyclopropylcarbamoyl)pyridin-3-yl)-N-methylpyrazolo[1,5-a]pyridine-3-carboxamide]: 2 to 250 nM; for `CNC(=O)c1c(-c2ccc(F)cc2)nn2ccc(-c3cc(C(=O)NC4(c5ncccn5)CC4)c(OCC4CCOCC4)nc3C)c(F)c12` [4-fluoro-2-(4-fluorophenyl)-N-methyl-5-(2-methyl-5-(1-(pyrimidin-2-yl)cyclopropylcarbamoyl)-6-((tetrahydro-2H-pyran-4-yl)methoxy)pyridin-3-yl)pyrazolo[1,5-a]pyridine-3-carboxamide]: 2 to 250 nM.
Still for that read-out and setting: the same measure for `CNC(=O)c1c(-c2ccc(F)cc2)nn2ccc(-c3cc(C(=O)NC4(c5nccc(O)n5)CC4)c(OC)cc3C)c(F)c12` [4-fluoro-2-(4-fluorophenyl)-5-(5-(1-(4-hydroxypyrimidin-2-yl)cyclopropylcarbamoyl)-4-methoxy-2-methylphenyl)-N-methylpyrazolo[1,5-a]pyridine-3-carboxamide]: 1000 to 10000 nM; for `CNC(=O)c1c(-c2ccc(F)cc2)nn2ccc(-c3cc(C(=O)NC4(c5ccccc5)CC4)c(OC)nc3C)c(F)c12` [4-fluoro-2-(4-fluorophenyl)-5-(6-methoxy-2-methyl-5-(1-phenylcyclopropylcarbamoyl)pyridin-3-yl)-N-methylpyrazolo[1,5-a]pyridine-3-carboxamide]: 2 to 250 nM; for `CNC(=O)c1c(-c2ccc(F)cc2)nn2ccc(-c3cc(C(=O)NC4(c5ccccn5)CC4)c(OC(F)F)nc3C)c(F)c12` [5-(6-(difluoromethoxy)-2-methyl-5-(1-(pyridin-2-yl)cyclopropylcarbamoyl)pyridin-3-yl)-4-fluoro-2-(4-fluorophenyl)-N-methylpyrazolo[1,5-a]pyridine-3-carboxamide]: 2 to 250 nM.
The same measure, in the same setting: the same measure for `CNC(=O)c1c(-c2ccc(F)cc2)nn2ccc(-c3cc(C(=O)NC4(c5cnccn5)CC4)c(OC)cc3C)c(F)c12` [4-fluoro-2-(4-fluorophenyl)-5-(4-methoxy-2-methyl-5-(1-(pyrazin-2-yl)cyclopropylcarbamoyl)phenyl)-N-methylpyrazolo[1,5-a]pyridine-3-carboxamide]: 2 to 250 nM; for `CNC(=O)c1c(-c2ccc(F)cc2)nn2ccc(-c3cc(C(=O)NC4(c5ccccn5)CC4)c(OCC4CCOCC4)nc3C)c(F)c12` [4-fluoro-2-(4-fluorophenyl)-N-methyl-5-(2-methyl-5-(1-(pyridin-2-yl)cyclopropylcarbamoyl)-6-((tetrahydro-2H-pyran-4-yl)methoxy)pyridin-3-yl)pyrazolo[1,5-a]pyridine-3-carboxamide]: 2 to 250 nM.
`CNC(=O)c1c(-c2ccc(F)cc2)nn2ccc(-c3cc(C(=O)NC4(c5ccnnc5)CC4)c(OC)cc3C)c(F)c12` [4-fluoro-2-(4-fluorophenyl)-5-(4-methoxy-2-methyl-5-(1-(pyridazin-4-yl)cyclopropylcarbamoyl)phenyl)-N-methylpyrazolo[1,5-a]pyridine-3-carboxamide] gave an EC50 of 1000 to 10000 nM.

The next data set concerns HCV.
Test: not given
The settings on record: extended dosing of the combination regimens; development suspended; cited from earlier work.
In the case of `CNC(=O)c1c(-c2ccc(F)cc2)oc2cc(N(CCO)S(C)(=O)=O)c(C3CC3)cc12` [HCV-796], the hepatic toxicity entry is on record as “hepatic toxicity observed”.
